The values that follow come from ChEMBL document CHEMBL4219122, “Synthesis and biological evaluation of histone deacetylase and DNA topoisomerase II-Targeted inhibitors” (Bioorg Med Chem, 2018).

The test system of one test is NCI-H522. Briefly: Growth inhibition of human NCI-H522 cells after 48 hrs by sulforhodamine B-based colorimetric assay. The test is classed as functional. The note with it: NCI-H522, 48 h.
The subject of the next test is ACHN. Briefly: Growth inhibition of human ACHN cells after 48 hrs by sulforhodamine B-based colorimetric assay. The test is classed as functional.
Another test has as its system OVCAR-3. Briefly: Growth inhibition of human OVCAR3 cells after 48 hrs by sulforhodamine B-based colorimetric assay. Type of test: functional. As to conditions: OVCAR-3, 48 h.
For a further test, the system named is MKN-45. Kind of test: Growth inhibition of human MKN45 cells after 48 hrs by sulforhodamine B-based colorimetric assay. The note with it: MKN-45, 48 h. Type of test: functional.
In another test the test system is NCI-H460. Kind of test: Growth inhibition of human NCI-H460 cells after 48 hrs by sulforhodamine B-based colorimetric assay. The test is classed as functional. The note with it: NCI-H460, 48 h.
In another test the target is Histone deacetylase 1 (Homo sapiens, UniProt Q13547). Briefly: Inhibition of recombinant human HDAC1 expressed in HEK293T cells using Ac-KGLGK(Ac)-MCA as substrate after 30 mins in presence of DTT by fluorescence assay.
Another test relates to NCI-H23. Kind of test: Growth inhibition of human NCI-H23 cells after 48 hrs by sulforhodamine B-based colorimetric assay. Type of test: functional. As to conditions: NCI-H23, 48 h.
The test system of another test is HCC 2998. Briefly: Growth inhibition of human HCC2998 cells after 48 hrs by sulforhodamine B-based colorimetric assay. The test is classed as functional. As to conditions: HCC 2998, 48 h.
The nature of test [1]: Selectivity index, ratio of IC50 for human placenta topoisomerase 2alpha to IC50 for mouse HDAC6 expressed in HEK293T cells co-expressing mouse HDA2. The test is classed as cell-based.
Another test deals with St-4. Kind of test: Growth inhibition of human St-4 cells after 48 hrs by sulforhodamine B-based colorimetric assay. The test is classed as functional. As to conditions: St-4, 48 h.
Another test deals with MCF7. Kind of test: Growth inhibition of human MCF7 cells after 48 hrs by sulforhodamine B-based colorimetric assay. The note with it: MCF7, 48 h. The test is classed as functional, cell-based.
Another test deals with DMS-273. Kind of test: Growth inhibition of human DMS273 cells after 48 hrs by sulforhodamine B-based colorimetric assay. The note with it: DMS-273, 48 h. Type of test: functional.
A further test relates to MKN-28. Briefly: Growth inhibition of human MKN28 cells after 48 hrs by sulforhodamine B-based colorimetric assay. The test is classed as functional. As to conditions: MKN-28, 48 h.
The subject of another test is OVCAR-4. Kind of test: Growth inhibition of human OVCAR4 cells after 48 hrs by sulforhodamine B-based colorimetric assay. The test is classed as functional. As to conditions: OVCAR-4, 48 h.
A short description of test [2]: Growth inhibition of human HBC4 cells after 48 hrs by sulforhodamine B-based colorimetric assay. Type of test: functional. As to conditions: HBC4, 48 h.
In a further test the test system is SNB-78. Kind of test: Growth inhibition of human SNB78 cells after 48 hrs by sulforhodamine B-based colorimetric assay. The note with it: SNB-78, 48 h. Type of test: functional.

Chain of Histone deacetylase 1 (Q13547 whole entry): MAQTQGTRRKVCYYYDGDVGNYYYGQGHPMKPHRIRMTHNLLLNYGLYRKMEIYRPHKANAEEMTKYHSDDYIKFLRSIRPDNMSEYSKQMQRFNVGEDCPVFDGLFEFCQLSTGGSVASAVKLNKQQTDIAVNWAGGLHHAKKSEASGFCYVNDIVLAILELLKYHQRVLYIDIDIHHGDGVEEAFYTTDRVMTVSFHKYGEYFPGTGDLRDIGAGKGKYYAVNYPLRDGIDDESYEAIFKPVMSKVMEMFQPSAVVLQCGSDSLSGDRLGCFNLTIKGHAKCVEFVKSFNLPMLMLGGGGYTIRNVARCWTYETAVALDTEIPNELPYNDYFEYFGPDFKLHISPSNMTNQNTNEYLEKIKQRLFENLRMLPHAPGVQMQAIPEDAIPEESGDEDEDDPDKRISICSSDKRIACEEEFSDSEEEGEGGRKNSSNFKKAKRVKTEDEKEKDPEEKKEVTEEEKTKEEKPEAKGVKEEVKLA

Take `Cc1cn([C@@H]2C[C@H](C3(c4ccc(NC(=O)CCCCCCC(=O)NO)cc4)SCCCS3)[C@@H](CO[Si](C)(C)C(C)(C)C)O2)c(=O)[nH]c1=O`: the GI50 with NCI-H522 is 2.69 µM; with ACHN, 9.33 µM; in the test on OVCAR-3 it was 3.02 µM; in the test on MKN-45, 10 µM; in the test with NCI-H460 it was 4.68 µM; with NCI-H23, 7.94 µM. Besides, the GI50 in the test on HCC 2998 was 8.32 µM; in the test with St-4 it was 8.71 µM; with MCF7 (read-out: GI50) it was 3.89 µM; with MCF7 (read-out: pGI50 (converted)) it was 3.89 µM; in the test on DMS-273, 3.98 µM; in the test on MKN-28 it was 4.27 µM. The GI50 was 3.98 µM in the test on OVCAR-4, 4.17 µM in test [2] and 10 µM with SNB-78. The IC50 (usually the point on the concentration scale where inhibition reaches its midpoint) at Histone deacetylase 1 stood at 1.1 µM. Besides, the Ratio IC50 in [1] was determined as 20.
As for `Cc1cn([C@H]2C[C@H](C3(c4ccc(NC(=O)CCCCCCC(=O)NO)cc4)SCCCS3)[C@@H](CO[Si](C)(C)C(C)(C)C)O2)c(=O)[nH]c1=O`, the GI50 in the test on NCI-H522 is 2.69 µM; with ACHN it was 4.37 µM; in the test with OVCAR-3 it was 2.95 µM; with MKN-45, 3.8 µM; in the test with NCI-H460, 3.98 µM; in the test on NCI-H23, 4.68 µM. The GI50 with HCC 2998 is 3.98 µM; in the test on St-4 it was 4.07 µM; in the test on MCF7 (read-out: GI50), 3.24 µM; in the test with MCF7 (read-out: pGI50 (converted)), 3.24 µM; in the test on DMS-273, 3.89 µM; in the test with MKN-28, 3.72 µM. In addition, the results for the GI50 (in the test with OVCAR-4; in test [2]; with SNB-78) were 3.24 µM, 3.89 µM and 6.76 µM, respectively. Further, the IC50 on Histone deacetylase 1 was 0.73 µM.
